Experimental data published in PubChem BioAssay (NCI).
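Results reflect a 48-hour exposure of cells in 96-well plates to compound at five concentrations. GI50 is the concentration that inhibits growth by half. Definition used: TGI = concentration required for complete inhibition of growth.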

Experiments:
Test in all cases: NCI anticancer screen, dose series, 48 h
[1] = test system: RXF 393 renal
[2] = test system: NCI-H522 lung
[3] = test system: K-562 leukemia
[4] = test system: CAKI-1 renal
[5] = test system: KM12 colon
[6] = test system: HT29 colon
[7] = test system: NCI-H226 lung
[8] = test system: OVCAR-3 ovarian
[9] = test system: HCC-2998 colon
[10] = test system: UACC-62 melanoma
[11] = test system: UACC-257 melanoma
[12] = test system: OVCAR-4 ovarian
[13] = test system: COLO 205 colon
[14] = test system: SR leukemia
[15] = test system: HCT-116 colon
[16] = test system: SK-MEL-2 melanoma
[17] = test system: SNB-75 CNS
[18] = test system: TK-10 renal
[19] = test system: HCT-15 colon
[20] = test system: U251 CNS
[21] = test system: RPMI-8226 leukemia
[22] = test system: SF-295 CNS
[23] = test system: MDA-MB-435
[24] = test system: SK-MEL-28 melanoma
[25] = test system: PC-3 prostate
[26] = test system: A549 NSCLC
[27] = test system: BT-549 breast
[28] = test system: NCI/ADR-RES ovarian
[29] = test system: NCI-H23 lung
[30] = test system: SF-268 CNS
[31] = test system: UO-31 renal
[32] = test system: LOX IMVI melanoma
[33] = test system: IGROV1 ovarian
[34] = test system: ACHN renal
[35] = test system: OVCAR-5 ovarian
[36] = test system: A498 renal
[37] = test system: SW-620 colon
[38] = test system: HS 578T breast
[39] = test system: MOLT-4 leukemia
[40] = test system: HL-60(TB) leukemia
[41] = test system: OVCAR-8 ovarian
[42] = test system: NCI-H460 lung
[43] = test system: M14 melanoma
[44] = test system: HOP-92 NSCLC
[45] = test system: SK-MEL-5 melanoma
[46] = test system: 786-0 renal
[47] = test system: DU-145 prostate
[48] = test system: MDA-MB-231 breast
[49] = test system: T-47D breast
[50] = test system: HOP-62 NSCLC
[51] = test system: SNB-19 CNS
[52] = test system: EKVX NSCLC
[53] = test system: SK-OV-3 ovarian
[54] = test system: SF-539 CNS
[55] = test system: MCF7 breast
[56] = test system: SN12C renal
[57] = test system: MALME-3M melanoma

SMILES: COc1ccc2oc(=O)cc(C3c4ccc([nH]4)C(c4cc(=O)oc5ccc(OC)cc45)c4ccc([nH]4)C(c4cc(=O)oc5ccc(OC)cc45)c4ccc([nH]4)C(c4cc(=O)oc5ccc(OC)cc45)c4ccc3[nH]4)c2c1 (centres undefined)
- GI50 [1]: 318 nM
- TGI [1]: 950 nM
- GI50 [2]: 1650 nM
- TGI [2]: 3160 nM
- GI50 [3]: 413 nM
- TGI [3]: 2030 nM
- GI50 [4]: 2160 nM
- TGI [4]: 6770 nM
- GI50 [5]: 2910 nM
- TGI [5]: 10800 nM
- GI50 [6]: 2280 nM
- TGI [6]: 5440 nM
- GI50 [7]: 1360 nM
- TGI [7]: 4630 nM
- GI50 [8]: 230 nM
- TGI [8]: 611 nM
- GI50 [9]: 2170 nM
- TGI [9]: 4060 nM
- GI50 [10]: 2690 nM
- TGI [10]: 7810 nM
- GI50 [11]: 2250 nM
- TGI [11]: 13200 nM
- GI50 [12]: 1260 nM
- TGI [12]: 2780 nM
- GI50 [13]: 1750 nM
- TGI [13]: 3600 nM
- GI50 [14]: 371 nM
- TGI [14]: 1660 nM
- GI50 [15]: 570 nM
- TGI [15]: 1930 nM
- GI50 [16]: 3020 nM
- TGI [16]: 9500 nM
- GI50 [17]: 2710 nM
- TGI [17]: 14800 nM
- GI50 [18]: 1580 nM
- TGI [18]: 2950 nM
- GI50 [19]: 399 nM
- TGI [19]: 1530 nM
- GI50 [20]: 4000 nM
- TGI [20]: 13900 nM
- GI50 [21]: 432 nM
- TGI [21]: 2040 nM
- GI50 [22]: 2820 nM
- TGI [22]: 10600 nM
- GI50 [23]: 1900 nM
- TGI [23]: 6660 nM
- GI50 [24]: 2480 nM
- TGI [24]: 12900 nM
- GI50 [25]: 2210 nM
- TGI [25]: 6760 nM
- GI50 [26]: 4230 nM
- TGI [26]: 14300 nM
- GI50 [27]: 2020 nM
- TGI [27]: 5360 nM
- GI50 [28]: 594 nM
- TGI [28]: 24800 nM
- GI50 [29]: 2370 nM
- TGI [29]: 6420 nM
- GI50 [30]: 2890 nM
- TGI [30]: 11200 nM
- GI50 [31]: 1220 nM
- TGI [31]: 3740 nM
- GI50 [32]: 814 nM
- TGI [32]: 2430 nM
- GI50 [33]: 2440 nM
- TGI [33]: 10800 nM
- GI50 [34]: 2120 nM
- TGI [34]: 6710 nM
- GI50 [35]: 2980 nM
- TGI [35]: 11100 nM
- GI50 [36]: 4090 nM
- TGI [36]: 12700 nM
- GI50 [37]: 389 nM
- TGI [37]: 1690 nM
- GI50 [38]: 2800 nM
- TGI [38]: 9430 nM
- GI50 [39]: 414 nM
- TGI [39]: 4240 nM
- GI50 [40]: 357 nM
- TGI [40]: 976 nM
- GI50 [41]: 619 nM
- TGI [41]: 2780 nM
- GI50 [42]: 3110 nM
- TGI [42]: 10400 nM
- GI50 [43]: 1240 nM
- TGI [43]: 4600 nM
- GI50 [44]: 2050 nM
- TGI [44]: 6500 nM
- GI50 [45]: 2210 nM
- TGI [45]: 9070 nM
- GI50 [46]: 1000 nM
- TGI [46]: 2200 nM
- GI50 [47]: 2070 nM
- TGI [47]: 4750 nM
- GI50 [48]: 2150 nM
- TGI [48]: 9040 nM
- GI50 [49]: 475 nM
- TGI [49]: 3690 nM
- GI50 [50]: 2730 nM
- TGI [50]: 9560 nM
- GI50 [51]: 5480 nM
- TGI [51]: 18300 nM
- GI50 [52]: 7580 nM
- TGI [52]: 22300 nM
- GI50 [53]: 2450 nM
- TGI [53]: 7330 nM
- GI50 [54]: 1700 nM
- TGI [54]: 3910 nM
- GI50 [55]: 364 nM
- TGI [55]: 2160 nM
- GI50 [56]: 3120 nM
- TGI [56]: 12700 nM
- GI50 [57]: 1540 nM
- TGI [57]: 3730 nM
